# Measurements published in patent US20040121009A1, “Method of modifying the release profile of sustained release compositions” (Alkermes Controlled Therapeutics, Inc., priority 2002, published 2004).
# Experiments:
# [1] = for amount of peripheral fibrosis surrounding the microsphere depot in the subcutis / intensity of the granulomatous inflammatory reaction within the microsphere mass: co-administration with EPO-containing microparticles; for color of the skin overlying microsphere depots: rat, in vivo
# Procedure: Animals were anesthetized with 5% halothane. Each animal was shaved and the back swabbed with alcohol. […] The microparticles were prepared as described above. The microparticles were injected into an interscapular site using a 21 gauge thinwall needle attached to a 1 mL syringe. Animals were dosed to receive a total of 10,000 U EPO either alone (Group A) or in combination with a total of 5 mg of hydrocortisone acetate (Group B), or 1 mg (Group C) or 5 mg (Group D) of triamcinolone diacetate. Animals were followed for 35 days post implantation.
# [2] = Example 3: hematocrit testing; format: in vivo, rat; conditions: day 19 (maximum for corticosteroid groups); Groups A, B, C of Table 3
# Procedure: (§1) Animals were dosed to receive a total of 10,000 Units of EPO in combination with a total of 100 mg of placebo microparticles (Group A), 5 mg of triamcinolone acetonide and 100 mg of placebo microparticles admixed (Group B) and 100 mg of 20% w/w hydrocortisone-containing microparticles (Group C). Sample collection time points were pre-bleed, 1, 2, 6, 12, 19, and 26 days.
# To evaluate EPO serum levels, 0.4 mL samples were collected via tail vein on the days specified in Table 3 (four animals per group). After clotting, the samples were centrifuged and frozen (−70° C.). Serum EPO levels were quantitated by ELISA (R&D Systems), according to the manufacturer's instructions (Cat. No. DEP00, and the data were normalized for dose and body weight. Starting on day 12, serum samples were also assessed for EPO antibody levels weekly, using an ELISA This assay detects all antibody subclasses inasmuch as the detecting antibody is reactive with both immunoglobulin heavy (γ) and light chains. Hematocrit analyses were carried out as described in Example 1, and were tested at the following intervals relative to time of microsparticle administration: pre-bleed, 1, 2, 6, 12, 19, and 26 days.
# [3] = Example 3: serum EPO levels by ELISA; format: in vivo, rat; conditions: 10,000 U EPO microparticles plus 100 mg placebo microparticles (A), 5 mg triamcinolone acetonide admixed with 100 mg placebo microparticles (B) or 100 mg 20% hydrocortisone microparticles (C)
# Procedure: as §1
# To evaluate EPO serum levels, 0.4 mL samples were collected via tail vein on the days specified in Table 3 (four animals per group). After clotting, the samples were centrifuged and frozen (−70° C.).
# anti-EPO antibody = assay: Example 3: immunogenicity, anti-EPO antibody ELISA of sera; format: in vivo, rat
# [4] = Example 1: hematocrit testing; format: in vivo, rat; conditions: day 36; EPO microparticles plus 1 mg secondary agent (Group C)
# Procedure: Animals were anesthetized with 5% halothane. […] The microparticles were prepared as described above. […] Hematocrits were evaluated manually following centrifugation for 5 minutes at 8000 rpm (on four animals per group) using a capillary tube.
color of the skin overlying microsphere depots [1],average serum EPO levels (steady state) between day 6 and day 19 [3],"anti-EPO antibody titer (anti-EPO antibody; day 19, the one positive animal of Group B)",EPO antibody titer as percentage of the titer in the control group (anti-EPO antibody; day 33),SMILES,amount of peripheral fibrosis surrounding the microsphere depot in the subcutis [1],intensity of the granulomatous inflammatory reaction within the microsphere mass [1],hematocrit values [2],"incidence of animals with anti-EPO antibodies (anti-EPO antibody; day 19, n=4/group)",incidence of animals with anti-EPO antibodies (anti-EPO antibody; day 33),hematocrit values [4]
pallid in most rats,,,,CC(=O)OCC(=O)[C@@]1(O)CC[C@H]2[C@@H]3CCC4=CC(=O)CC[C@]4(C)[C@H]3[C@@H](O)C[C@@]21C [hydrocortisone acetate],diminished,reduced,,,,
,148.6±102.9 mU/mL,1800,about 50%,CC1(C)O[C@@H]2C[C@H]3[C@@H]4CCC5=CC(=O)C=C[C@]5(C)[C@@]4(F)[C@@H](O)C[C@]3(C)[C@]2(C(=O)CO)O1 [triamcinolone acetonide],,,69.3%±3.3,only one animal,75%,
pallid in most rats,,,,CC(=O)OCC(=O)[C@@]1(O)[C@H](OC(C)=O)C[C@H]2[C@@H]3CCC4=CC(=O)C=C[C@]4(C)[C@@]3(F)[C@@H](O)C[C@@]21C [triamcinolone diacetate],diminished,reduced,,,,mid-60%
